Values of other authors as cited in patent US12295729B2, “Apparatus and method for delivery of antimicrobial during a transdermal sampling and delivery process” (Georgetown University, priority 2015, dated 2025).

Assays:
[1] = tested on: Escherichia coli
[2] = tested on: Helicobacter pylori
[3] = tested on: Haemophilus influenza
[4] = tested on: Acinetobacter baumannii
[5] = tested on: Mycobacterium smegmatis
[6] = tested on: Bacillus anthracis
[7] = tested on: Yersinia pestis
[8] = tested on: Achromobacter xylosoxidans
[9] = tested on: Shigella sp.
[10] = tested on: Borrelia spp.
[11] = tested on: Aggregatibacter actinomycetemcomitans
[12] = tested on: Mannheimia haemolytica
[13] = tested on: Burkholderia pseudomallei
[14] = tested on: Listeria monocytogenes
[15] = tested on: Treponema denticola
[16] = tested on: Fusobacterium nucleatum
[17] = tested on: Pasteurella multocida
[18] = tested on: Prevotella melaninogenica
[19] = tested on: Salmonella sp.
[20] = tested on: Streptococcus mutans
[21] = tested on: Enterococcus faecalis
[22] = tested on: Prevotella loescheii
[23] = tested on: Leptospira interrogans
[24] = tested on: Prevotella intermedia
[25] = tested on: Tannerella forsythia
[26] = tested on: Brucella suis
[27] = tested on: Treponema pallidum
[28] = tested on: Staphylococcus aureus
[29] = tested on: Nocardia sp.
[30] = tested on: Klebsiella pneumonia
[31] = tested on: Porphyromonas circumdentaria
[32] = tested on: Mycobacterium bovis
[33] = tested on: Burkholderia thailandensis
[34] = tested on: Group A streptococcus
[35] = tested on: Pseudomonas aeruginosa
[36] = tested on: Streptococcus pneumonia
[37] = tested on: Lactobacillus casei
[38] = tested on: Micrococcus luteus
[39] = tested on: Group B Streptococcus
[40] = tested on: Capnocytophaga spp.
[41] = tested on: Porphyromonas gingivalis
[42] = tested on: Propionibacterium acnes
[43] = tested on: Francisella novicida
[44] = tested on: Burkholderia cepacia
[45] = tested on: Stenotrophomonas maltophilia

Measured: bacteria killing ability

LL-37 (LLGDFFRKSKEKIGKEFKRIVQRIKDFLRNLVPRTES; Antibacterial peptide LL-37; UniProt P49913 134-170, looked up) [antimicrobial peptide; the factotum human cathelicidin peptide]
kill: all assays above
